Bridges are numbered along the chain shown (N, C = ends). Where no end group is shown, it is not given here. [ ]: non-standard residue; d: D form. The star is where a group is joined. Biotin = O=C1N[C@H]2[C@H](CS[C@H]2CCCCC(=O)*)N1; S5 = C=CCCC[C@](C)(N)C(=O)O; Nle = CCCC[C@H](N)C(=O)O
Columns and labels:
[1] = tested on: actin filaments; experiment: Staple scan of TAMRA-tagged stapled Abp140 peptides: actin binding over time by fluorescence microscopy in C2C12 cells; format: cell-based; details: C2C12 mouse myoblast cells, TAMRA-tagged peptides (b)-(g) compared
From the text: As a proof of concept, hydrocarbon staples were introduced at different locations in a peptide with known binding attributes for a target protein in order to identify stapled peptides with enhanced stability, cell penetrance, and that retain or enhance target binding. As shown in FIG. 1 (row (a)), a peptide composed of 17 amino acids from the N-terminus of the S. cerevisiae Abp 140 protein that binds to actin filaments was chosen for modification. In the native protein, this peptide has an alpha-helical structure that is a recognition motif for actin. At least one all-hydrocarbon staple was introduced at various locations of the peptide to stabilize the alpha-helical recognition motif to produce stapled peptides markers for actin (see rows (b)-(g) in FIG. 1; the location of hydrocarbon staples in the peptide sequence is demarcated by an X, wherein X is(S)-2-(4′-pentenyl)alanine). […] After 3 hours of incubation, cells were washed with PBS to remove extra peptide reagent and fluorescence microscopy was then used to assess actin binding by the peptides, and to determine overall peptide stability. […] The stapled peptide that retained actin binding over the longest period of time, as determined by fluorescence in cells, was selected as having hydrocarbon staple(s) at the optimal sequence locations for improving peptide stability for biomarker detection.

[2] = tested on: actin; experiment: Visualization of actin in U2OS cells with TAMRA- and biotin-labeled stapled peptides; format: cell-based
[3] = tested on: actin filaments; experiment: Labeling of actin filaments in live C2C12 cells, confocal microscopy; format: cell-based, mouse; details: 10 μM, room temperature, 2 hours, then 50 μM chloroquine for 30 minutes
Description: To determine if stabilized peptides can be used to detect biomarkers in live cells, stapled peptide (g) (see FIG. 1, row (g)) was used to label actin filaments in mouse myoblast cells (C2C12 cell line, ATCC® CRL-1772™). Initially, cells were seeded at a density of 10,000 cells/well in 96 well plates in DMEM media and incubated overnight at 37° C. […] After washing the cells with phosphate-buffered saline (PBS), Hoechst DNA dye was then added to the cells, which were further incubated at room temperature for 30 minutes before being washed again to remove extra dye. Afterwards, confocal microscopy was used to determine the intracellular localization of the fluorescent-tagged stapled peptide.
This technology can be applied for, e.g., to FACS and other fluorescent high-throughput screening methods to for example detect overexpression of biomarkers in fixed and living cells.

[4] = tested on: actin; experiment: Labeling of actin in live zebrafish, confocal microscopy; format: in vivo; details: 10 μM, room temperature, 2 hours, then 50 μM chloroquine for 30 minutes; skin; FIG. 9
Description: In a further application, a lead TAMRA-labeled stapled actin-binding peptide was incubated with live zebrafish (10 μM, room temperature, 2 hours), followed by treatment with 50 μM chloroquine for 30 minutes to achieve complete endosomal release and was immediately imaged by confocal microscopy (FIG. 9).

[5] = tested on: actin; experiment: Actin visualization in fixed murine tissues; format: cell-based, mouse; details: fixed murine heart, lower extremity and tongue, FIG. 5
[6] = tested on: actin filaments; experiment: Labeling of actin filaments in fixed C2C12 cells, confocal microscopy; format: cell-based, mouse
Description: Stapled peptide (g) was also used to detect actin filaments in fixed C2C12 cells. Cells were seeded in 96 well plates at a density of 10,000 cells/well in DMEM media and incubated overnight at 37° C. The cells were fixed using 4% paraformaldehyde in PBS for 20 minutes and then permeabilized using 0.3% Triton-X100 in PBS for 10 minutes. This was followed by the addition of Hoechst DNA dye to the cells to stain nuclei, and FITC-phalloidin (Acti-stain™ 488 phalloidin, Cat. #PHDG1-A, Cytoskeleton, Inc.) to label F actin. After rinsing the cells with PBS, serial dilutions of each peptide were transferred to the cells, and the cells were incubated at 37° C. for 30 minutes. Confocal microscopy was then used to detect the cellular localization of the stapled peptide (g) fused to a fluorescent tag.

## peptide (f): hydrocarbon-stapled Abp140 N-terminal 17-mer, TAMRA-tagged; selected as most stable stapled peptide marker for actin ([Nle]GVADLIKKFE[S5]ISK[S5]EK(TAMRA); staple 12-16)
[1]
  period of time over which actin binding is retained, as determined by fluorescence in cells: exhibited actin binding for the longest period of time

## (h): stapled actin-binding peptide with alanine substitution and Lysine(Biotin) ([Nle]GVADLIKKFE[S5]IAK[S5]EK(Biotin); staple 12-16; not fully specified)
[2]; biotin label, fixed cells, FIG. 4B
  actin detection in U2OS cells, indirect detection with fluorescently-labeled streptavidin: robust actin detection was observed

## peptide (g): peptide (f) with a serine to alanine substitution (S14A); Lysine(TAMRA)-tagged stapled actin-binding peptide ([Nle]GVADLIKKFE[S5]IAK[S5]EK(TAMRA); staple 12-16)
[3]
  cell entry and labeling of actin filaments in live cells: entered live cells and selectively bound to and labeled actin filaments
[2]; TAMRA label, FIG. 4A
  actin detection in U2OS cells, direct fluorescence detection: robust actin detection was observed
[4]
  labeling of actin in live zebrafish: can label actin in the skin of live zebrafish
[5]
  actin visualization in mouse tissues: robust actin visualization in heart, lower extremity, and tongue specimens
[6]; C2C12 cells fixed with 4% paraformaldehyde, permeabilized with 0.3% Triton-X100, confocal microscopy
  labeling of actin filaments in fixed cells: selectively bound to and labeled actin filaments
[6]; fixed C2C12 cells
  co-localization with the FITC-phalloidin-labeled actin filament network: co-localized with the actin filament network
